From ChEMBL document CHEMBL5523684, “Development of a tetrahydroindazolone-based HDAC6 inhibitor with in-vivo anti-arthritic activity” (Bioorg Med Chem, 2024)
Values belong to the compound of their own block, whether it stands above or below them. Calls of active or inactive are those of the source. The calls are words filed in the database; no cut-off is given here.

Legend:
Histone deacetylase 4 = Histone deacetylase 4 (Homo sapiens, UniProt P56524); experiment: Inhibition of human recombinant HDAC4 using Boc-Lys(tri-fluoroacetyl)-AMC as substrate by fluorescence based analysis
Histone deacetylase 4, sequence (P56524 whole entry): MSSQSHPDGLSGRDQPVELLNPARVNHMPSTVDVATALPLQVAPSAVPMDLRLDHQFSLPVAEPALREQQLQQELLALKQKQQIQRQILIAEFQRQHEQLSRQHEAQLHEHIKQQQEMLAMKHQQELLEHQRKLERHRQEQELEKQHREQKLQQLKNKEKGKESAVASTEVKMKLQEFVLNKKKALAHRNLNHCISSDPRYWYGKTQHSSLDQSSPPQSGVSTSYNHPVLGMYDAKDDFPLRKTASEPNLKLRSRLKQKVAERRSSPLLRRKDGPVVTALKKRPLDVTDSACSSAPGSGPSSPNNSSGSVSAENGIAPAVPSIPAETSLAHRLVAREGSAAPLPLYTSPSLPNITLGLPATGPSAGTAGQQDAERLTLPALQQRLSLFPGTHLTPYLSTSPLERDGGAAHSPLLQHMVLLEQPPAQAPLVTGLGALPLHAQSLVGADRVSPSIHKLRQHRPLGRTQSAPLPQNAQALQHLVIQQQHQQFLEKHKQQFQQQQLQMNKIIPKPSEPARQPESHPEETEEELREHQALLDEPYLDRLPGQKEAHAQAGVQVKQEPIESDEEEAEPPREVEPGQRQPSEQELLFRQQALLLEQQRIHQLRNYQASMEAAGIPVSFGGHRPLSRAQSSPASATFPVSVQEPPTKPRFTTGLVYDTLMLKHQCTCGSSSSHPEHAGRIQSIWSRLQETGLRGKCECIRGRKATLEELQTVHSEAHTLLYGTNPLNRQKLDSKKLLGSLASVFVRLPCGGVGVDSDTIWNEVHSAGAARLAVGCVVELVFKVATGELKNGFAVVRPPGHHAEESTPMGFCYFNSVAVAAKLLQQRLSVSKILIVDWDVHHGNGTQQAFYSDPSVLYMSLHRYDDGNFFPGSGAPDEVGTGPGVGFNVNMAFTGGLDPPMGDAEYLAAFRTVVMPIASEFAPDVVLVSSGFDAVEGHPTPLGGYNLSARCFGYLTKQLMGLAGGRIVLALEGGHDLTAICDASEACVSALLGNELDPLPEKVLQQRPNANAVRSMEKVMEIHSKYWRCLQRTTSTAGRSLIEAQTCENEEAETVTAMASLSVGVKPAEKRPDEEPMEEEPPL

Histone deacetylase 5 = Histone deacetylase 5 (Homo sapiens, UniProt Q9UQL6); experiment: Inhibition of human recombinant HDAC5 using Boc-Lys(tri-fluoroacetyl)-AMC as substrate by fluorescence based analysis
Histone deacetylase 5, sequence (Q9UQL6 whole entry, the tested form may be a part): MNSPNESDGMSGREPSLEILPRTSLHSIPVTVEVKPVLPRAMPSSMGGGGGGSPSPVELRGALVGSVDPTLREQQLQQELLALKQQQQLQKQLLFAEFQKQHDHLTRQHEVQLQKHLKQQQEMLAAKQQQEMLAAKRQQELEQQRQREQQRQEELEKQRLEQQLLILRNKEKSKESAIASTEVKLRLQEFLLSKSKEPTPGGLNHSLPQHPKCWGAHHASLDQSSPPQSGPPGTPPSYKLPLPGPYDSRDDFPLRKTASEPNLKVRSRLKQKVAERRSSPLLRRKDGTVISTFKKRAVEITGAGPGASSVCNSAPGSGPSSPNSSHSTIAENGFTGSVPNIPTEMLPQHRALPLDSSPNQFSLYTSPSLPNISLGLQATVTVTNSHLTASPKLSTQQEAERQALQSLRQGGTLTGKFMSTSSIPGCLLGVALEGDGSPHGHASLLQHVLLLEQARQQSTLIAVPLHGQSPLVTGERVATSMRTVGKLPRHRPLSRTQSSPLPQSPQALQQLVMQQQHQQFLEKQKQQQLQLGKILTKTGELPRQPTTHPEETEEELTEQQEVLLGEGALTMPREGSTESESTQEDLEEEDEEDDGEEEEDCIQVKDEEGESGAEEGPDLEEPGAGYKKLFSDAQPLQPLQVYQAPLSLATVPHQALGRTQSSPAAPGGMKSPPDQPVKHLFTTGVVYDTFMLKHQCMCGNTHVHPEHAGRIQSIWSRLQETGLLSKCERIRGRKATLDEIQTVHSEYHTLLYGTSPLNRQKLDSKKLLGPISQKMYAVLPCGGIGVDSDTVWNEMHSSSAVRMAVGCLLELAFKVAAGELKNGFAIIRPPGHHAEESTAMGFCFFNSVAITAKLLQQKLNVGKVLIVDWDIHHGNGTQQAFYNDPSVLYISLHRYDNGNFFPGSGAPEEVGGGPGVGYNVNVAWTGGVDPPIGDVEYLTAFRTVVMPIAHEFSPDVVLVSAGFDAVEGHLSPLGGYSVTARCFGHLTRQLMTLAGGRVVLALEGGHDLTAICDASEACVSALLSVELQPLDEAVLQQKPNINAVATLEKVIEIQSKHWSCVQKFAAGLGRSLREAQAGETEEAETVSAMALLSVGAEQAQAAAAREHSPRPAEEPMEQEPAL

[1] = molecular target: T1, Protein deacetylase HDAC6 (Homo sapiens, UniProt Q9UBN7); experiment: Inhibition of human recombinant HDAC6 using fluorescent peptide p53 (379 to 382 residues) RHKK(Ac) as substrate by fluorescence based analysis
T1 sequence (Q9UBN7 whole entry): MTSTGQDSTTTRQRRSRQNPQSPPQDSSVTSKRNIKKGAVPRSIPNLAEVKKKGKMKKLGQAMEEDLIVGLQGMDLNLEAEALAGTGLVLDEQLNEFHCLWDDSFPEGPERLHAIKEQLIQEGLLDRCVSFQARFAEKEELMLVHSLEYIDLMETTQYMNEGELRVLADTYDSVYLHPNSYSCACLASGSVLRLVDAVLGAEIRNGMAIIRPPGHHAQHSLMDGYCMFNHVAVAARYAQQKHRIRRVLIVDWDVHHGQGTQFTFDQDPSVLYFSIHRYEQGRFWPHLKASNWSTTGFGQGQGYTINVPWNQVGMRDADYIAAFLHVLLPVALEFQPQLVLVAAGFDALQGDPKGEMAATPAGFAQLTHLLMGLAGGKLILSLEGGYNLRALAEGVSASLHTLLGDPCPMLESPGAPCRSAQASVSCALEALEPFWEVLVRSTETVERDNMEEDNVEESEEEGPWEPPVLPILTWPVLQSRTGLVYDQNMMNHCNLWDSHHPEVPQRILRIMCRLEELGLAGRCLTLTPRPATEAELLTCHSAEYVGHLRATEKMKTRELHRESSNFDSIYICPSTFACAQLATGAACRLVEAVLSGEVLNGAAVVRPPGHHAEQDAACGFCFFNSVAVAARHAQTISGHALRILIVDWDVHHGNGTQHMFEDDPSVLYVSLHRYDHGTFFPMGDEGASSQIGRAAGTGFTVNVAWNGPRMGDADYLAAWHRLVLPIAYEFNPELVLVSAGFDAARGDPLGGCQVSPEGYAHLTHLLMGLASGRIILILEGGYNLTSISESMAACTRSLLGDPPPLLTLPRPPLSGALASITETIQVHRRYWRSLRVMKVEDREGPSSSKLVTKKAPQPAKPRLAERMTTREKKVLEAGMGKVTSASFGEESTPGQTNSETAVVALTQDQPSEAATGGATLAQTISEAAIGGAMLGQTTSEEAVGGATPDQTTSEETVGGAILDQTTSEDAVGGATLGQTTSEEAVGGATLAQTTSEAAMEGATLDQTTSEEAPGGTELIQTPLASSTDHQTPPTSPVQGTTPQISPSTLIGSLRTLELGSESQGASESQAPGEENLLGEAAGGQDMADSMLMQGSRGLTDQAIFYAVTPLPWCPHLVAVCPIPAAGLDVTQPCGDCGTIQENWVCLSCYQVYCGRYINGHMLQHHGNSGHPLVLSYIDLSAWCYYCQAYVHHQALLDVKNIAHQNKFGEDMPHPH

Histone deacetylase 9 = Histone deacetylase 9 (Homo sapiens, UniProt Q9UKV0); experiment: Inhibition of human recombinant HDAC9 using Boc-Lys(tri-fluoroacetyl)-AMC as substrate by fluorescence based analysis
Histone deacetylase 9, sequence (Q9UKV0 whole entry): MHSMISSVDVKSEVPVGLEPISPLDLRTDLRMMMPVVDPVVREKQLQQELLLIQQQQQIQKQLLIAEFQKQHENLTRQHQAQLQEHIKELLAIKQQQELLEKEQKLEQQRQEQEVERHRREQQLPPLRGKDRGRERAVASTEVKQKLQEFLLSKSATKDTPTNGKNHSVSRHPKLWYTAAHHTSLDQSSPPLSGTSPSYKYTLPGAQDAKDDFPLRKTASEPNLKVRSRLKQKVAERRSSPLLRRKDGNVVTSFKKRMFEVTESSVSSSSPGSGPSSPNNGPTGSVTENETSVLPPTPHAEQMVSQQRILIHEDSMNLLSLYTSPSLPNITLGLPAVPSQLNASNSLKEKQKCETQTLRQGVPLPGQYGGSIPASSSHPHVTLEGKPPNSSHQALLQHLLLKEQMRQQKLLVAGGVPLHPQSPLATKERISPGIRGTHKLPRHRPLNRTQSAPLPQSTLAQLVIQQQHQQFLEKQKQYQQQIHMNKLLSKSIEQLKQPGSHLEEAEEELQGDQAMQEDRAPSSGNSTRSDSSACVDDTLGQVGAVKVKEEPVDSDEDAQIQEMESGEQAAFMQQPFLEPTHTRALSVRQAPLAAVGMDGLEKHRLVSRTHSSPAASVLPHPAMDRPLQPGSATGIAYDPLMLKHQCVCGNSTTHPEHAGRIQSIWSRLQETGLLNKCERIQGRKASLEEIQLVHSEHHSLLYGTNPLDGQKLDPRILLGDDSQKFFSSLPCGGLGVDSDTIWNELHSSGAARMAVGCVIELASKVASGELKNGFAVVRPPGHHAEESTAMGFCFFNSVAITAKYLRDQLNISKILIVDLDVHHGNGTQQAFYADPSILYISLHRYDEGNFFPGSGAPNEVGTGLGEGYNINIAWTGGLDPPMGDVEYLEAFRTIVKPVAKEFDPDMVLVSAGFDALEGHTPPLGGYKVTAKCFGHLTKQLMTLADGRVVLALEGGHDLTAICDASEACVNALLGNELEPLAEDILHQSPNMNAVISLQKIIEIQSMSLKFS

[2] = molecular target: T2, Protein deacetylase HDAC6 (Homo sapiens) (UniProt Q9UBN7); experiment: Inhibition of HDAC6 in human HH cells assessed as induction of acetylated tubulin accumulation at 0.3 uM by Western blot analysis; assay type: cell-based
T2 sequence (whole entry): T1 sequence (Q9UBN7 whole entry)

[3] = molecular target: T2, Protein deacetylase HDAC6 (Homo sapiens); experiment: Inhibition of HDAC6 in human HH cells assessed as induction of acetylated H3 accumulation upto 10 uM by Western blot analysis; assay type: cell-based
[4] = molecular target: T2, Protein deacetylase HDAC6 (Homo sapiens); experiment: Inhibition of HDAC6 in human HH cells assessed as induction of acetylated H4 accumulation upto 10 uM by Western blot analysis; assay type: cell-based
THP-1 = experiment: Inhibition of TNF-alpha secretion in LPS-stimulated human THP-1 cells pretreated with compound for 24 hrs followed by LPS-induction and measured after 4 hrs by ELISA analysis; assay type: functional, cell-based; settings: dose 0.3-10 µM
[5] = Half life in mouse at 10 mg/kg, iv; assay type: ADME, organism-based; settings: in vivo
[6] = Tmax in mouse at 50 mg/kg, po; assay type: ADME, organism-based; settings: in vivo
[7] = C0 in mouse at 10 mg/kg, iv; assay type: ADME, organism-based; settings: in vivo
[8] = Cmax in mouse at 50 mg/kg, po; assay type: ADME, organism-based; settings: in vivo
[9] = AUClast in mouse at 10 mg/kg, iv; assay type: ADME, organism-based; settings: in vivo
[10] = AUClast in mouse at 50 mg/kg, po; assay type: ADME, organism-based; settings: in vivo
[11] = AUC (0 to infinity) in mouse at 10 mg/kg, iv; assay type: ADME, organism-based; settings: in vivo
[12] = AUC (0 to infinity) in mouse at 50 mg/kg, po; assay type: ADME, organism-based; settings: in vivo
[13] = Half life in dog at 0.5 mg/kg, iv; assay type: ADME, organism-based, Canis lupus familiaris; settings: in vivo
[14] = Half life in dog at 5 mg/kg, po; assay type: ADME, organism-based, Canis lupus familiaris; settings: in vivo
[15] = Tmax in dog at 5 mg/kg, po; assay type: ADME, organism-based, Canis lupus familiaris; settings: in vivo
[16] = AUClast in dog at 5 mg/kg, po; assay type: ADME, organism-based, Canis lupus familiaris; settings: in vivo
[17] = AUC (0 to infinity) in dog at 0.5 mg/kg, iv; assay type: ADME, organism-based, Canis lupus familiaris; settings: in vivo
[18] = AUC (0 to infinity) in dog at 5 mg/kg, po; assay type: ADME, organism-based, Canis lupus familiaris; settings: in vivo
[19] = Clearance in dog at 0.5 mg/kg, iv; assay type: ADME, organism-based, Canis lupus familiaris; settings: in vivo
[20] = Half life in monkey at 10 mg/kg, po; assay type: ADME, organism-based, Macaca mulatta; settings: rhesus monkey, in vivo
[21] = Tmax in monkey at 10 mg/kg, po; assay type: ADME, organism-based, Macaca mulatta; settings: rhesus monkey, in vivo
[22] = C0 in monkey at 0.5 mg/kg, iv; assay type: ADME, organism-based, Macaca mulatta; settings: rhesus monkey, in vivo
[23] = Cmax in monkey at 10 mg/kg, po; assay type: ADME, organism-based, Macaca mulatta; settings: rhesus monkey, in vivo
[24] = AUClast in monkey at 0.5 mg/kg, iv; assay type: ADME, organism-based, Macaca mulatta; settings: rhesus monkey, in vivo
[25] = AUClast in monkey at 10 mg/kg, po; assay type: ADME, organism-based, Macaca mulatta; settings: rhesus monkey, in vivo
[26] = AUC (0 to infinity) in monkey at 0.5 mg/kg, iv; assay type: ADME, organism-based, Macaca mulatta; settings: rhesus monkey, in vivo
[27] = AUC (0 to infinity) in monkey at 10 mg/kg, po; assay type: ADME, organism-based, Macaca mulatta; settings: rhesus monkey, in vivo
Mus musculus [28] = experiment: Antiarthritic activity against collagen-induced arthritis DBA1J mouse model at 15 to 30 mg/kg, sc measured after 21 days; assay type: functional, organism-based; settings: dose lower […], dose upper 30.0 mg/kg, time 21.0 day
Rattus norvegicus = experiment: Antiarthritic activity against adjuvant-induced arthritis Lewis rat model assessed as improvement in arthritis symptoms at 50 mg/kg, po measured after 8 days in presence of methotrexate; assay type: functional; settings: time 8 day
Mus musculus [29] = experiment: Antiarthritic activity against collagen-induced arthritis DBA1J mouse model assessed as improvement in arthritis symptoms at 15 mg/kg, sc measured after 21 days; assay type: functional; settings: time 21 day
Mus musculus [30] = experiment: Antiarthritic activity against collagen-induced arthritis DBA1J mouse model assessed as improvement in arthritis symptoms at 30 mg/kg, sc measured after 21 days; assay type: functional; settings: time 21 day

Compound: O=C(NO)c1ccc(Cn2c3c(c4ccccc42)C(=O)CCC3)cc1
IC50 (Histone deacetylase 4): > 20 µM | IC50 (Histone deacetylase 5): > 20 µM | IC50 [1]: 0.035 µM | IC50 (Histone deacetylase 9): > 20 µM

inhibition [2]: Active | inhibition [3]: inactive | inhibition [4]: inactive | half-life [5]: 17.4 min | Tmax [6]: 4.98 min | C0 [7]: 4290 ng/mL | Cmax [8]: 2080 ng/mL | AUC(0-t) [9]: 1200 ng·h/mL | AUC(0-t) [10]: 1140 ng·h/mL | AUC(0-inf) [11]: 1210 ng·h/mL | AUC(0-inf) [12]: 1150 ng·h/mL | half-life [13]: 36 min | half-life [14]: 84 min | Tmax [15]: 24 min | AUC(0-t) [16]: 1090 ng·h/mL | AUC(0-inf) [17]: 458 ng·h/mL | AUC(0-inf) [18]: 1150 ng·h/mL | clearance [19]: 18.8 mL/min/kg | half-life [20]: 57 min | Tmax [21]: 120 min | C0 [22]: 1040 ng/mL | Cmax [23]: 137 ng/mL | AUC(0-t) [24]: 299 ng·h/mL | AUC(0-t) [25]: 332 ng·h/mL | AUC [26]: 302 ng·h/mL | AUC(0-inf) [27]: 339 ng·h/mL
Compound: CC1(C)CC(=O)c2c(C(F)(F)F)nn(Cc3ccc(C(=O)NO)cc3)c2C1
inhibition (THP-1): Dose-Dependent Effect | Activity (Mus musculus [28]): Active | Activity (Rattus norvegicus): 97.9% | Activity (Mus musculus [29]): 53% | Activity (Mus musculus [30]): 65%
